Laboratory results reported in patent EP1981504B1, “THIADIAZOLE DERIVATIVES FOR THE TREATMENT OF NEURO DEGENERATIVE DISEASES” (NV reMYND, priority 2006, dated 2007).
Converted amounts (≈) assume the structure as drawn.

Columns and labels:
[1] = system: dopaminergic substantia nigra neurons; test: in vivo inhibition of paraquat-triggered loss of substantia nigra neurons (tyrosine hydroxylase immunohistochemistry); settings: mice, paraquat intraperitoneal not higher than 8 mg/kg/day, compound not higher than 20 mg/kg body weight/day, 8 weeks treatment, versus vehicle
Description: In order to model neuronal loss in the substantia nigra region of the brain, mice were treated with paraquat (intraperitoneal) at a dose not higher than 8 mg/kg/day for a continuous period of 15-100 days. These mice were also chronically co-treated during that period with: • compound 60 (1-[4-methoxyphenylsulfonyl]-4-[3-(4-methylbenzyl)-1,2,4-thiadiazol-5-yl]-2-methylpiperazine), or • compound 32 (1-[4-methoxyphenylsulfonyl]-4-[3-(4-fluorobenzyl)-1,2,4-thiadiazol-5-yl]piperazine), or • compound 53 (1-[4-methoxyphenylsulfonyl]-4-[3-(3-methoxy-benzyl)-1,2,4-thiadiazol-5-yl]piperazine), each being administered at a dose not higher than 20 mg/kg body weight/day), or by vehicle only (no active compound). Mice treatment by means of vehicle or a compound of the invention started 2 days before administration of paraquat.
At the end of the treatment period, mice were sacrificed and the corresponding brains were used for immunohistochemical analysis. […] Using antibodies raised against tyrosin hydroxylase (anti-tyrosin hydroxylase), tyrosine hydroxylase containing neurons in the brains were detected.
Three groups of mice were treated with either paraquat and compound 53 (group 3; n=6), or paraquat and vehicle of compound 53 (group 2; n=4), or vehicle paraquat and vehicle of compound 53 (group 1; n=3). […] Per mouse, the median %TH-positive areas (of the substantia nigra regions) was determined. […]

M17-SYNwt cells = test: α-synuclein cytotoxicity assay (LDH leakage from paraquat-treated α-synuclein over-expressing neuroblastoma cells); format: cell-based, human; settings: paraquat 32 mM, 40 hours, LDH release; for EC50: Homo sapiens, Neuroblastoma cell; for EC50 / EC50 (µg/mL): 10 point curves in duplicate; for %I: percent inhibition of synuclein cytotoxicity at most effective concentration of test compound, relative to untreated paraquat cells
In short: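 M17 neuroblastoma cells over-expressing wild-type α-synuclein were challenged with paraquat, and cytotoxicity was read as LDH release. Protection was expressed as percent reduction of paraquat-induced LDH release relative to untreated paraquat cells and control cells. Actives were retested in 10-point duplicate dose responses.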

| Compound | TH-positive area of the substantia nigra [1] | EC50 (M17-SYNwt cells) | %I (M17-SYNwt cells) | EC50 (µg/mL) (M17-SYNwt cells) |
| --- | --- | --- | --- | --- |
| COc1ccc(S(=O)(=O)N2CCN(c3nc(Cc4cccc(OC)c4)ns3)CC2)cc1 [Compound 53, 1-[4-methoxyphenylsulfonyl]-4-[3-(3-methoxybenzyl)-1,2,4-thiadiazol-5-yl]piperazine] | protects dopaminergic substantia nigra neurons against paraquat-triggered degeneration | 0.66 ng/mL (≈ 0.00143 µM) | 83% | – |
| CCc1ccc(S(=O)(=O)N2CCN(c3nc(Cc4ccc(F)cc4)ns3)CC2)cc1 [Compound 197, 1-[4-ethylphenylsulfonyl]-4-[3-(4-fluoro-benzyl)-1,2,4-thiadiazol-5-yl]piperazine] | – | 239 ng/mL (≈ 0.535 µM) | 84% | – |
| O=S(=O)(c1ccccc1)N1CCN(c2nc(Cc3ccc(F)cc3)ns2)CC1 [Compound 198, 1-phenylsulfonyl-4-[3-(4-fluoro-benzyl)-1,2,4-thiadiazol-5-yl]piperazine] | – | 146 ng/mL (≈ 0.349 µM) | 25% | – |
| COc1ccc(S(=O)(=O)N2CCN(c3nc(Cc4ccccc4)ns3)CC2)cc1 [Compound 199, 1-[4-methoxyphenylsulfonyl]-4-[3-benzyl-1,2,4-thiadiazol-5-yl]piperazine] | – | 1.6 ng/mL (≈ 0.00372 µM) | 38% | – |
| CCC(=O)Oc1ccc(S(=O)(=O)N2CCN(c3nc(Cc4ccc(F)cc4)ns3)CC2)cc1 [Compound 200, 1-(4-propionyloxy)benzene-sulfonyl-4-[3-(4-fluoro-benzyl)-1,2,4-thiadiazol-5-yl]piperazine] | – | 51 ng/mL (≈ 0.104 µM) | 80% | – |
| COc1ccc(S(=O)(=O)N2CCN(c3nc(Cc4cccc(C)c4)ns3)CC2)cc1 [Compound 201] | – | 2.1 ng/mL (≈ 0.00472 µM) | 97% | – |
| COc1ccc(S(=O)(=O)N2CCN(c3nc(Cc4ccccc4C)ns3)CC2)cc1 [Compound 202] | – | 7.5 ng/mL (≈ 0.0169 µM) | 63% | – |
| COc1ccc(S(=O)(=O)N2CCN(c3nc(Cc4ccccc4OC)ns3)CC2)cc1 [Compound 203] | – | 6.2 ng/mL (≈ 0.0135 µM) | 61% | – |
| COc1ccc(S(=O)(=O)N2CCN(c3nc(Cc4ccc(F)c(C)c4)ns3)CC2)cc1 [Compound 204] | – | 1 ng/mL (≈ 0.00216 µM) | 90% | – |
| COc1ccc(Cc2nsc(N3CCN(S(=O)(=O)c4ccc(OC)cc4)CC3)n2)cc1 [Compound 205] | – | 1.1 ng/mL (≈ 0.00239 µM) | 53% | – |
| COc1cccc(Cc2nsc(N3CCN(S(=O)(=O)c4ccc(Br)cc4)CC3)n2)c1 [Compound 207] | – | 28 ng/mL (≈ 0.055 µM) | 83% | – |
| COc1ccc(S(=O)(=O)N2CCN(c3nc(Cc4cccc(OC)c4)ns3)CC2C)cc1 (stereo not drawn) [Compound 208, 1-[4-methoxyphenylsulfonyl]-4-[3-(3-methoxybenzyl)-1,2,4-thia-diazol-5-yl]-2-methyl-piperazine] | – | 3.4 ng/mL (≈ 0.00716 µM) | 92% | – |
| O=S(=O)(c1ccc(O)cc1)N1CCN(c2nc(Cc3ccc(F)cc3)ns2)CC1 [Compound 217, 1-(4-hydroxybenzenesulfonyl)-4-[3-(4-fluoro-benzyl)-1,2,4-thiadiazol-5-yl]piperazine] | – | – | 77% | – |
| N-(2,6-dichlorophenyl)-4-[3-(4-fluorobenzyl)-1,2,4-thiadiazol-5-yl]-2-methylpiperazine-1-carboxamide [Compound 21] | – | – | 70% | 0,79 µg/mL |
| N-(3-cyanophenyl)-4-[3-(4-fluorobenzyl)-1,2,4-thiadiazol-5-yl]-2-methylpiperazine-1-carboxamide [Compound 22] | – | – | 59% | 0,88 µg/mL |
